Reference: PubChem BioAssay AID1963872 (Molecular Pharmacology Branch, DTP, NCI, 2024)

Test system: KRAS patient-derived spheroids with HUVEC/MSC, viability
Assay: Anticancer human tumor 519858-162-T-J1-PDC patient-derived colon adenocarcinoma cell line growth inhibition [KRAS2]
Conditions: for IC50: curve of first compound; for viability, T/C: stronger effect = lower value
Excerpt: Multicellular complex tumor spheroid response to RAS pathway inhibitors in combination with a targeted agents in patient-derived cell lines with oncogenic KRAS variants from multiple cancer types
A high-throughput screen of multi-cell type tumor spheroids was designed to identify active combinations of targeted small molecules and KRAS pathway inhibitors. Complex spheroids include a stromal component modeled by human endothelial cells (HUVEC) and fibroblasts modeled by human mesenchymal stem cells (MSCs). The concentration ranges selected for each drug and investigational agent were based upon clinically achievable concentrations if the clinical Cmax of the agent was known.
Compounds. The drugs and investigational agents: BI-3406 (NSC825286), BAY-293 (NSC824723), batoprotafib (TNO155; NSC825523), sotorasib (AMG 510; NSC818433), MRTX1257 (NSC819558), elimusertib (BAY 1895344; NSC800525), molibresib (GSK525762; NSC774829), temuterkib (LY3214996; NSC803410), venetoclax (NSC766270), alisertib (NSC759677), olaparib (NSC753686), talazoparib (NSC767125), erdafitinib (NSC781556), ipatasertib (NSC767898), cabozantinib (NSC761068), nintedanib (NSC756659), abemaciclib (NSC768073), docetaxel (NSC628503), trametinib (NSC758246), and sapanisertib (NSC764658) were obtained from the National Cancer Institute (NCI) Developmental Therapeutics Program Chemical Repository. The FDA-approved anticancer drug set is available from the Developmental Therapeutics Program. […] The stock solutions were prepared in dimethyl sulfoxide (DMSO, Sigma-Aldrich, St. Louis, MO, cat. D2650) at 800-fold the tested concentration and stored at -70 degrees C prior to their use. All drugs and investigational agents were tested over a range starting from a high concentration at or near the clinical Cmax and decreasing in half-log increments. If the clinical Cmax for an agent had not been determined, the highest concentration tested was 10 microM.
Cell Culture. All cells were maintained in an incubator at 37 degrees C and 5% CO2 with 95% humidity. The PDC lines were cultured according to standard operating procedures established by the NCI PDMR (https://pdmr.cancer.gov/sops/default.htm). Briefly, all PDCs were thawed and cultured in Matrigel-coated flasks prepared with a working solution of 1X Ham's F-12 nutrient mix, without supplementation (Invitrogen, Waltham, MA, cat. 11765054), 100 U/mL penicillin-streptomycin (Invitrogen, cat. 15140122), and 2.5% Matrigel (Corning Inc., Corning, NY, cat. 354248) for the first three passages. All PDCs were cultured in complete DMEM/F-12 media containing advanced DMEM/F-12 (Invitrogen, cat. 12634028), 4.9% defined fetal bovine serum, heat inactivated (HyClone Laboratories Inc., Logan, UT, cat. SH30070.03HI), 389 ng/mL hydrocortisone (Sigma-Aldrich, cat. H4001), 9.7 ng/mL human EGF recombinant protein (Invitrogen, cat. PHG0313), 23.4 microg/mL adenine (Sigma-Aldrich, cat. A2786), 97.3 U/mL penicillin-streptomycin (Invitrogen, cat. 15140122), 1.9 mM L-glutamine (Invitrogen, cat. 25030081), and 9.7 microM Y-27632 dihydrochloride (Tocris Bioscience, Bristol, United Kingdom, cat. 1254). The PDCs were cultured in complete DMEM/F12 media without 9.7 microM Y-27632 dihydrochloride for at least two passages prior to the screen. The established cell line HOP-62 was cultured in RPMI 1640 medium, HEPES (Invitrogen, cat. 22400105) with 10% defined fetal bovine serum (HyClone Laboratories Inc., cat. SH30070.03) and 2 mM L-glutamine (Invitrogen, cat. 25030081). The pooled donor HUVEC were cultured in endothelial cell growth medium 2 (PromoCell, Heidelberg, Germany, cat. C-22011) and the hMSC were cultured in mesenchymal stem cell growth medium 2 (PromoCell, cat. C-28009). For all experiments, HUVEC and hMSC were used at passages </=5, while the malignant cell lines were used at passages </=15. […]

[1] = second compound 0.1 µM, first compound 0.0316 µM
[2] = second compound 0.1 µM, first compound 0.1 µM
[3] = second compound 0.1 µM, first compound 0.316 µM
[4] = second compound 0.1 µM, first compound 1 µM
[5] = second compound 0.1 µM, first compound 3.16 µM
[6] = second compound 0.316 µM, first compound 0.0316 µM
[7] = second compound 0.316 µM, first compound 0.1 µM
[8] = second compound 0.316 µM, first compound 0.316 µM
[9] = second compound 0.316 µM, first compound 1 µM
[10] = second compound 0.316 µM, first compound 3.16 µM
[11] = second compound 1 µM, first compound 0.0316 µM
[12] = second compound 1 µM, first compound 0.1 µM
[13] = second compound 1 µM, first compound 0.316 µM
[14] = second compound 1 µM, first compound 1 µM
[15] = second compound 1 µM, first compound 3.16 µM
[16] = second compound 3.16 µM, first compound 0.0316 µM
[17] = second compound 3.16 µM, first compound 0.1 µM
[18] = second compound 3.16 µM, first compound 0.316 µM
[19] = second compound 3.16 µM, first compound 1 µM
[20] = second compound 3.16 µM, first compound 3.16 µM
[21] = second compound 10 µM, first compound 0.0316 µM
[22] = second compound 10 µM, first compound 0.1 µM
[23] = second compound 10 µM, first compound 0.316 µM
[24] = second compound 10 µM, first compound 1 µM
[25] = second compound 10 µM, first compound 3.16 µM
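Note: compound exposure lasted seven days before readout.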
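Throughout, for viability, T/C: 100% = DMSO vehicle control viability.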

For `CC(=O)OC12COC1CC(O)C1(C)C(=O)C(O)C3=C(C)C(OC(=O)C(O)C(NC(=O)OC(C)(C)C)c4ccccc4)CC(O)(C(OC(=O)c4ccccc4)C21)C3(C)C` (stereo not given) + CNCc1ccccc1-c1csc(C(C)Nc2nc(C)nc3cc(OC)c(OC)cc23)c1, which IC50 (second compound 0.1 µM) is on record?
Its IC50 is > 3.16 µM.

And the IC50 (second compound 0.316 µM)?
Its IC50 is > 3.16 µM.

What about the IC50 (second compound 1 µM) of the same compound?
Its IC50 is > 3.16 µM.

What about the IC50 (second compound 3.16 µM) of the same compound?
Its IC50 is 0.0816 µM.

And the IC50 (second compound 10 µM)?
The IC50 was < 0.01 µM.

What about the viability, T/C (second compound 0.1 µM, first compound 0.01 µM) of the same compound?
The viability, T/C was 96.1%.

And the viability, T/C [1]?
The viability, T/C was 75%.

And the viability, T/C [2]?
The viability, T/C was 77%.

And the viability, T/C [3]?
The viability, T/C was 74.6%.

What about the viability, T/C [4] of the same compound?
The viability, T/C was 78%.

And the viability, T/C [5]?
Its viability, T/C is 62.5%.

What about the viability, T/C (second compound 0.316 µM, first compound 0.01 µM) of the same compound?
Its viability, T/C is 76.2%.

What about the viability, T/C [6] of the same compound?
Its viability, T/C is 66.5%.

What about the viability, T/C [7] of the same compound?
The viability, T/C was 85.8%.

What about the viability, T/C [8] of the same compound?
Its viability, T/C is 71.9%.

And the viability, T/C [9]?
The viability, T/C was 63.6%.

And the viability, T/C [10]?
The viability, T/C was 73.9%.

What about the viability, T/C (second compound 1 µM, first compound 0.01 µM) of the same compound?
The viability, T/C was 80.8%.

What about the viability, T/C [11] of the same compound?
Its viability, T/C is 129%.

What about the viability, T/C [12] of the same compound?
The viability, T/C was 94.9%.

And the viability, T/C [13]?
The viability, T/C was 106%.

And the viability, T/C [14]?
The viability, T/C was 86.2%.

What about the viability, T/C [15] of the same compound?
The viability, T/C was 68.5%.

What about the viability, T/C (second compound 3.16 µM, first compound 0.01 µM) of the same compound?
Its viability, T/C is 117%.

And the viability, T/C [16]?
The viability, T/C was 74.8%.

What about the viability, T/C [17] of the same compound?
The viability, T/C was 38.7%.

What about the viability, T/C [18] of the same compound?
Its viability, T/C is 38%.

And the viability, T/C [19]?
Its viability, T/C is 21.1%.

What about the viability, T/C [20] of the same compound?
Its viability, T/C is 80.8%.

And the viability, T/C (second compound 10 µM, first compound 0.01 µM)?
Its viability, T/C is 43.4%.

And the viability, T/C [21]?
The viability, T/C was 1.29%.

And the viability, T/C [22]?
Its viability, T/C is 10.6%.

What about the viability, T/C [23] of the same compound?
Its viability, T/C is 8.61%.

And the viability, T/C [24]?
Its viability, T/C is 86.4%.

And the viability, T/C [25]?
Its viability, T/C is 2.58%.

With `COC(=O)c1ccc2c(C(=Nc3ccc(N(C)C(=O)CN4CCN(C)CC4)cc3)c3ccccc3)c(O)[nH]c2c1` + CC1OCC2(CCN(c3cnc(Sc4ccnc(N)c4Cl)c(N)n3)CC2)C1N as the compound, how does the IC50 (second compound 0.1 µM) read?
The IC50 was > 10 µM.

What about the IC50 (second compound 0.316 µM) of the same compound?
The IC50 was > 10 µM.

What about the IC50 (second compound 1 µM) of the same compound?
The IC50 was > 10 µM.

And the IC50 (second compound 3.16 µM)?
The IC50 was > 10 µM.

And the IC50 (second compound 10 µM)?
Its IC50 is > 10 µM.

What about the viability, T/C [1] of the same compound?
The viability, T/C was 66%.

And the viability, T/C [2]?
Its viability, T/C is 80%.

And the viability, T/C [3]?
Its viability, T/C is 63.4%.

What about the viability, T/C [4] of the same compound?
The viability, T/C was 66%.

What about the viability, T/C [5] of the same compound?
Its viability, T/C is 99.7%.

What about the viability, T/C (second compound 0.1 µM, first compound 10 µM) of the same compound?
The viability, T/C was 74.6%.

What about the viability, T/C [6] of the same compound?
The viability, T/C was 72.7%.

What about the viability, T/C [7] of the same compound?
Its viability, T/C is 67.5%.

And the viability, T/C [8]?
The viability, T/C was 86.5%.

And the viability, T/C [9]?
Its viability, T/C is 64.1%.

And the viability, T/C [10]?
Its viability, T/C is 67%.

What about the viability, T/C (second compound 0.316 µM, first compound 10 µM) of the same compound?
Its viability, T/C is 98.8%.

What about the viability, T/C [11] of the same compound?
The viability, T/C was 75.4%.

And the viability, T/C [12]?
The viability, T/C was 75%.

And the viability, T/C [13]?
The viability, T/C was 56.9%.

And the viability, T/C [14]?
Its viability, T/C is 70.7%.

What about the viability, T/C [15] of the same compound?
Its viability, T/C is 64.6%.

What about the viability, T/C (second compound 1 µM, first compound 10 µM) of the same compound?
The viability, T/C was 84%.

What about the viability, T/C [16] of the same compound?
Its viability, T/C is 47.9%.

And the viability, T/C [17]?
Its viability, T/C is 60.9%.

What about the viability, T/C [18] of the same compound?
The viability, T/C was 72.7%.

And the viability, T/C [19]?
Its viability, T/C is 52.6%.

And the viability, T/C [20]?
Its viability, T/C is 67.4%.

What about the viability, T/C (second compound 3.16 µM, first compound 10 µM) of the same compound?
The viability, T/C was 83.2%.

What about the viability, T/C [21] of the same compound?
Its viability, T/C is 49.9%.

What about the viability, T/C [22] of the same compound?
The viability, T/C was 58%.

And the viability, T/C [23]?
The viability, T/C was 64.7%.

And the viability, T/C [24]?
Its viability, T/C is 69.2%.

What about the viability, T/C [25] of the same compound?
Its viability, T/C is 75.3%.

And the viability, T/C (second compound 10 µM, first compound 10 µM)?
The viability, T/C was 88.3%.
